Read-outs that look alike come from different tables or passages of the source.
How the values were obtained:
[1] = treatment periods of up to one year; cited from earlier work
[2] = rat, in vivo, po; cited from earlier work
[3] = cited from earlier work
[4] = system: Na/K ATPase; conditions: catalytic cycle of Na/K ATPase; cited from earlier work
[5] = hypertensive obese non-diabetic women; cited from earlier work
[6] = cited from earlier work; remark: listed apart in the source
[7] = after 14 weeks, cited from earlier work
[8] = person with Type 2 diabetes; metformin 500 mg b.i.d.; combination after 2 months
[9] = person, Type 2 diabetes; metformin 1000 mg b.i.d.; combination after 3 months
[10] = dietary; STZ-induced diabetic rats; cited from earlier work
[11] = NIDDM patients; cited from earlier work

For `O=S(=O)([O-])[O-].[O]=[V+2]` [vanadyl sulfate], the apparent toxicity [1] is given as “does not appear not to be associated with any apparent toxicity”.
For chromium picolinate, the “rate of absorption relative to chromium trichloride” value [2] is given as “about four times greater than chromium trichloride”.
For `Cc1c(C)c2c(c(C)c1O)CC[C@@](C)(CCC[C@H](C)CCC[C@H](C)CCCC(C)C)O2` [vitamin E, free 2R,4′R,8′R-alpha-tocopherol], the non-fatal myocardial infarction ([3]; 400 or 800 I.U. daily, patients with coronary artery disease) is given as “dramatic and significant reduction of non-fatal myocardial infarction” and the “side effects versus placebo” value ([3]; 400 or 800 I.U.) is given as “no difference between the alpha-tocopherol treatment (400 or 800 I.U.) or placebo groups for side effects”.
For `[O]=[V]([O-])([O-])[O-]` [vanadate], the “concentration inhibiting formation of EP” value [4] is listed as “less than 1 micromolar”.
For `CN(C)C(=N)NC(=N)N` [Metformin alone, N,N-dimethylimidodicarbonimidicdiamide], the “blood pressure, plasma insulin, fibrinogen” value [5] is listed as “decreased blood pressure, fasting and glucose-stimulated plasma insulin fibrinogen”, the “HbA1c level after metformin therapy” value ([6]; after 29 weeks, alone or in combination with sulfonylurea, improved from 8.6%) is listed as 7.1% and the “effect on serum lipids” value ([6]; moderately obese Type 2 diabetics) is listed as “lowering mean fasting serum triglycerides, total cholesterol, and LDL cholesterol levels”. For the same compound, the “reduction of HbA1c” value ([7]; 500 mg daily) was 0.9%, the “reduction of HbA1c” value ([7]; 2000 mg daily) was 2.0% and the Cholesterol [8] was 229. The “Estimated Blood Sugar” value [8] was 200 mg/dL, the “Fasting Blood Sugar” value [8] was 185 mg/dL and the HDL [8] was 52. The “HbA1c level” value [8] was 9.7, the LDL [8] was 133 and the Triglycerides [8] was 220. For the same compound, the HbA1c level [9] was 8.3.
For `CC(=O)N[C@@H](CS)C(=O)O` [NAC, N-acetylcysteine], the “development of peripheral neuropathy” value [10] is listed as “appeared to inhibit the development of peripheral neuropathy” and the “reduction of apolipoprotein A1” value [11] is listed as “over 20%”.

From patent US6852760B1, “Compositions and methods for treatment for glucose metabolism disorders” (Akesis Pharmaceuticals, Inc., priority 1998, dated 2005)
